Reference: publication PMC9319179, “Heterologous Expression and Characterization of Plant Wax Ester Producing Enzymes” (Metabolites, 2022)

How the values were obtained:
Arabidopsis At5g55340 WS = target: T1, Arabidopsis At5g55340 WS (Arabidopsis thaliana, UniProt Q9FJ76); assay: in vivo feeding of expressing yeast, wax esters by TLC and GC-MS; type: cell-based; conditions: S. cerevisiae H1246; 50 uM alcohol with fed fatty acid (13:0 preferred), 20 °C; acyl donor formed in vivo
T1 construct: gene AT5
T1 sequence (Q9FJ76 1-333): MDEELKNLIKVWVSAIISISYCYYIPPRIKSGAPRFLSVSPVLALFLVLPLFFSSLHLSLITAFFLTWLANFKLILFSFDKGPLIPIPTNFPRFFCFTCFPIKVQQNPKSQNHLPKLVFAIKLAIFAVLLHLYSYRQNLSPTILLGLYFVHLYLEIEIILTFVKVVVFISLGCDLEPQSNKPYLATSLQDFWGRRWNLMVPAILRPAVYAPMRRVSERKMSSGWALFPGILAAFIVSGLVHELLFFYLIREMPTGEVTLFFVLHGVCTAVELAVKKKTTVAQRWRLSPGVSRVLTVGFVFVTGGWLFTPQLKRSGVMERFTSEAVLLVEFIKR

[1] = target: T2, maize WS (NP_001147171.1) (Zea mays, UniProt B6SLT2); assay: in vivo feeding of expressing yeast, ethyl/benzyl esters by GC-MS; type: cell-based; conditions: S. cerevisiae H1246; fed fatty acids (14:1 preferred acyl), 20 °C; acyl donor formed in vivo
T2 construct: full-length ORF, C-terminal His6 tag, yeast codon-optimized synthetic ORF, expressed in S. cerevisiae H1246
T2 sequence (B6SLT2 1-345): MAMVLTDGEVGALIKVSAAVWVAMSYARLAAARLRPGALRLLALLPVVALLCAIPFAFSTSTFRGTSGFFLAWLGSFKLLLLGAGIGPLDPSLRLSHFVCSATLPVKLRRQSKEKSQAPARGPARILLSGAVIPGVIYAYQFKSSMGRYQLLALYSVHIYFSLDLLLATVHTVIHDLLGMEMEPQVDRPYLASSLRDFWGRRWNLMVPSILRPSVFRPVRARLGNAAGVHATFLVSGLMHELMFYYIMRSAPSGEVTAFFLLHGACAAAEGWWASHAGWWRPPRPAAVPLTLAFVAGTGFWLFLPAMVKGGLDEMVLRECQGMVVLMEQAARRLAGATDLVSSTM

| Compound | in vivo feeding of expressing yeast, wax esters by TLC and GC-MS (Arabidopsis At5g55340 WS) | in vivo feeding of expressing yeast, ethyl/benzyl esters by GC-MS [1] |
| --- | --- | --- |
| CCCCCCCCCCCCCO [C13:0, C13:0 fatty alcohol] | apparent optimum at 13-carbon chain length for both the fatty acid and fatty alcohol |  |
| OCc1ccccc1 [benzyl alcohol] |  | ability to assemble esters with ethanol, benzyl alcohol, and phenylethyl alcohol |
| CCO [ethanol] |  | ability to assemble esters with ethanol, benzyl alcohol, and phenylethyl alcohol |
